# Data from patent US11304892B2, “Alteromonas macleodii Dow02-2 and its metabolites for improving skin moisturization” (TCI Co., Ltd., priority 2018, dated 2022).
# How the values were obtained:
# Assay type in all cases: cell-based
# Conditions in all cases: HPEK-50 cells, 10 μg/ml, 6 hours, 37° C.
# KRT14 gene = test: qPCR relative expression of KRT14 gene in human epidermal keratinocytes HPEK-50
# Protocol: (§1) The human epidermal keratinocytes HPEK-50 were cultured with a keratinocyte-SFM at 37° C. for 24 hours. Thereafter, the cells were divided into eight groups and respectively cultured with the following media at 37° C. for 6 hours: • 1. Control group: keratinocyte-SFM; • 2. “Supernatant” group: keratinocyte-SFM that was additionally added with 62.5 μg/ml of the supernatant obtained from [Preparation Example] B; • 3. “Fraction 1” group: keratinocyte-SFM that was additionally added with 62.5 μg/ml of the Fraction 1 obtained from [Preparation Example] C-1; • 4. “Fraction 2” group: keratinocyte-SFM that was additionally added with 62.5 μg/ml of the Fraction 2 obtained from [Preparation Example] C-1; • 5. […]
# (§2) To investigate the effects of metabolites of Alteromonas macleodii Dow02-2 and 2-hydroxy-3-methylbutyric acid on moisturizing skin, inventors of the present invention collected the cells in each group of Example 1-1. […] Thereafter, the cDNA was subjected to a quantitative polymerase chain reaction (qPCR) by using a KAPA CYBR FAST qPCR kit (purchased from KAPA Biosystems) and ABI StepOne Plus™ System to determine the expression levels of moisturizing-related genes such as TGM1 gene, KRT1 gene, KRT10 gene, KRT14 gene, FLG gene, GBA gene and HAS3 gene in the cells of each group. […]
# GBA gene = test: qPCR relative expression of GBA gene in human epidermal keratinocytes HPEK-50
# Protocol: as §1, §2
# FLG gene = test: qPCR relative expression of FLG gene in human epidermal keratinocytes HPEK-50
# Protocol: as §1, §2
# KRT10 gene = test: qPCR relative expression of KRT10 gene in human epidermal keratinocytes HPEK-50
# Protocol: as §1, §2
# TGM1 gene = test: qPCR relative expression of TGM1 gene in human epidermal keratinocytes HPEK-50
# Protocol: as §1, §2
# HAS3 gene = test: qPCR relative expression of HAS3 gene in human epidermal keratinocytes HPEK-50
# Protocol: as §1, §2
# KRT1 gene = test: qPCR relative expression of KRT1 gene in human epidermal keratinocytes HPEK-50
# Protocol: as §1, §2
compound,measurement,setting,value
CC(C)C(O)C(=O)O (stereo not shown) [2-hydroxy-3-methylbutyric acid],increase of expression level of KRT14 gene in comparison with the control group,KRT14 gene,43%
same,increase of expression level of GBA gene in comparison with the control group,GBA gene,49%
same,increase of expression level of FLG gene in comparison with the control group,FLG gene,41%
same,increase of expression level of KRT10 gene in comparison with the control group,KRT10 gene,158%
same,increase of expression level of TGM1 gene in comparison with the control group,TGM1 gene,26%
same,increase of expression level of HAS3 gene in comparison with the control group,HAS3 gene,97%
same,increase of expression level of KRT1 gene in comparison with the control group,KRT1 gene,29%
